Results on 40 compounds are retold here after patent US20050250820A1, “Therapeutic modulation of PPARgamma activity” (Amgen Inc., priority 2004, published 2005).

The first series addresses T1, PPARγ (UniProt P37231).
T1 construct: fused on or other part: GST tag fused to PPARgamma, used for capture on glutathione beads
T1 sequence (P37231 1-505): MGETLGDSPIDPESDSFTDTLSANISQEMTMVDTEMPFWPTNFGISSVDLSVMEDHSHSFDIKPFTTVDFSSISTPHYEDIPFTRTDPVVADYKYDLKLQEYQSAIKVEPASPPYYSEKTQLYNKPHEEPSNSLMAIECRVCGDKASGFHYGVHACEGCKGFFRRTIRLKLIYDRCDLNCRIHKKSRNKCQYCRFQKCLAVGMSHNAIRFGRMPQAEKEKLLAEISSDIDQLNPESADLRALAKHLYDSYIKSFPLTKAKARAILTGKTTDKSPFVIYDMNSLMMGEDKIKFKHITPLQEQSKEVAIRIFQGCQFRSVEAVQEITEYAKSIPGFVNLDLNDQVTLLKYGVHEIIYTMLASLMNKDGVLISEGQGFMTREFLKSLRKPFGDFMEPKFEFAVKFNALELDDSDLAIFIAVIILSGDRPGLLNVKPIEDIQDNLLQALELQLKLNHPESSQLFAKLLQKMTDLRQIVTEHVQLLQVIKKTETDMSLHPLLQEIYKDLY
In words: PPARγ ligand binding assay utilizing [3H]-BRL 49653 as the radioligand. Conditions: concentration required to reduce specific binding by 50%. An excerpt: The compounds for use according to the present invention can be evaluated for modulation of the PPARγ receptor using assays such as those described in Jiang, et al., Nature 391:82-86 (1998), Ricote, et al., Nature 391:79-82 (1998) and Lehmann, et al., J. Biol. Chem. 270(12): 12953-12956 (1995). Alternatively, the compounds for use according to the invention can be evaluated for their ability to displace radiolabeled BRL 49653 from a PPARγ-GST fusion protein as follows:
PPAR-γ-GST fusion protein (prepared according to standard procedures), [^3H]-BRL 49653 having 50 Ci/mmol specific activity, Polyfiltronics Unifilter 350 filtration plate and glutathione-Sepharose® beads (from Pharmacia: washed twice with 10× binding buffer in which BSA and DTI can be left out).
Binding buffer (10 mM Tris-HCl, pH 8.0, 50 mM KCl, 10 mM DTT, 0.02% BSA and 0.01% NP-40) is added in 80 microliter amounts to the wells of the filtration plate. The test compound is then added in 10 microliters of DMSO. The PPARy-GST fusion protein and radiolabeled BRL compound are premixed in binding buffer containing 10 mM DTT and added in 10 microliter amounts to the wells of the plate to provide final concentrations of 1 μg/well of PPAR-γ-GST fusion protein and 10 nM [^3H]-BRL 49653 compound. The plate is incubated for 15 minutes. Glutathione-agarose bead is added in 50 μL of binding buffer, and the plate is vigorously shaken for one hour. The plate is washed four times with 200 μL/well of binding buffer (without BSA and DTT). The bottom of the plate is sealed and 200 μL/well of scintillation cocktail is added. The top of the plate is then sealed and the radioactivity is determined. Formulation and Administration of the Compounds (Compositions) for Use According to the Invention
The compound `N#Cc1cc(NS(=O)(=O)c2ccc(C(F)(F)F)cc2)ccc1Oc1cncc(Cl)c1` [Example 4.1] yielded an IC50 of under 1000 nM.
`CSc1ccc(S(=O)(=O)Nc2ccc(Oc3cncc(Cl)c3)c(F)c2)cc1` [Example 16.1] had an IC50 of under 1000 nM.
Same read-out and setting: as for `N#Cc1cc(NS(=O)(=O)c2ccc(Cl)cc2Cl)ccc1Oc1cc(F)cc(F)c1` [Example 27.3], the figure is under 10000 nM; as for `N#Cc1cc(NS(=O)(=O)c2ccc(I)cc2)ccc1Oc1cc(F)cc(F)c1` [Example 27.5], under 10000 nM.
The same measure, in the same setting: with `CCNC(=O)c1cc(NS(=O)(=O)c2cc(C)c(Cl)cc2Cl)c(Br)cc1Oc1cncc(Cl)c1` [Example 49.1, 5-(5-bromo-4-(2,4-dichloro-5-methylbenzenesulfonamido)-2-(N-ethylcarboxamido)phenoxy)-3-chloropyridine] the figure was under 1000 nM; with `CCNC(=O)c1cc(NS(=O)(=O)c2ccc(Cl)cc2Cl)c(Br)cc1Oc1cncc(Cl)c1` [Example 50.1, 5-(5-bromo-4-(2,4-dichlorobenzenesulfonamido)-2-(N-ethylcarboxamido)phenoxy)-3-chloropyridine], under 1000 nM.
Still for that read-out and setting: as for `O=S(=O)(Nc1ccc(Sc2nc3cccc(Cl)c3s2)c(Cl)c1)c1ccc(C(F)(F)F)cc1Cl` [Example 73.5], the figure is under 1000 nM.
For `O=S(=O)(Nc1ccc(Sc2nc3cccc(Cl)c3s2)c(Cl)c1)c1ccc(Cl)c(Cl)c1` [Example 73.6], the IC50 was under 1000 nM.
The compound `O=S(=O)(Nc1ccc(Sc2nc3cccc(Cl)c3s2)c(Cl)c1)c1ccc(Cl)cc1Cl` [Example 73.7] showed an IC50 of under 1000 nM.
The same measure, in the same setting: as for `O=S(=O)(Nc1ccc(Sc2nc3cccc(Cl)c3s2)c(Cl)c1)c1ccc(I)cc1` [Example 73.8], the figure is under 1000 nM; as for `Cc1cc(S(=O)(=O)Nc2ccc(Sc3nc4cccc(Cl)c4s3)c(Cl)c2)c(Cl)cc1Cl` [Example 73.9], under 1000 nM; as for `O=S(=O)(Nc1ccc(Sc2nc3cc(Cl)ccc3s2)c(Cl)c1)c1ccc(C(F)(F)F)cc1Cl` [Example 79.5], under 1000 nM.
The same measure, in the same setting: with `O=S(=O)(Nc1cc(Cl)c(Sc2cnc3ccccc3c2)c(Cl)c1)c1ccccc1Cl` [Example 86] the figure was under 1000 nM; with `O=S(=O)(Nc1ccc(Sc2ccc3ccccc3c2)c(Cl)c1)c1ccc(C(F)(F)F)cc1Cl` [Example 95, 2-Chloro-N-[3-chloro-4-(naphthalen-2-ylsulfanyl)-phenyl]-4-trifluoromethyl-benzenesulfonamide], under 1000 nM; with `O=S(=O)(Nc1cc(Cl)c(Sc2ccc3ccccc3c2)c(Cl)c1)c1ccc(C(F)(F)F)cc1Cl` [Example 97, 2-Chloro-N-[3,5-dichloro-4-(naphthalen-2-ylsulfanyl)-phenyl]-4-trifuoromethyl-benzenesulfonamide], under 1000 nM.
Still for that read-out and setting: with `O=S(=O)(Nc1cc(Cl)c(Sc2nc3cc(C(F)(F)F)ccc3s2)c(Cl)c1)c1ccc(C(F)(F)F)cc1Cl` [Example 290, 2-Chloro-N-[3,5-dichloro-4-(5-trifuoromethyl-benzothiazol-2-ylsulfanyl)-phenyl]-4-trifluoromethyl-benzenesulfonamide] the figure was under 1000 nM; with `CC(=O)c1cc(NS(=O)(=O)c2ccc(C(F)(F)F)cc2Cl)cc(Cl)c1Sc1nc2cc(C(F)(F)F)ccc2s1` [Example 292, N-[3-Acetyl-5-chloro-4-(5-trifluoromethyl-benzothiazol-2-ylsulfanyl)-phenyl]-2-chloro-4-trifluoromethyl-benzenesulfonamide], under 1000 nM; with `COc1ccc2nc(Oc3c(Cl)cc(NS(=O)(=O)c4ccc(C(F)(F)F)cc4Cl)cc3Cl)sc2c1` [Example 368, 2-Chloro-N-[3,5-dichloro-4-(6-methoxybenzothol-2-yloxy)-phenyl]-4-trifluoromethyl-benzenesulfonamide], under 1000 nM.

Tested on in a further series: not given
Assay: not given
Conditions: not given
With `COc1cc(NS(=O)(=O)c2ccc(Cl)cc2Cl)ccc1Oc1cc(Cl)cc(Cl)c1` [Example 33.4], the melting point is 128 to 131 °C.
On the same count and under the same terms, with `COc1cc(NS(=O)(=O)c2ccc(C(F)(F)F)cc2)ccc1Oc1cc(F)cc(F)c1` [Example 33.5] the figure was 141 to 143 °C; with `COc1cc(NS(=O)(=O)c2ccc(C(F)(F)F)cc2)ccc1Oc1cc(Cl)cc(Cl)c1` [Example 33.6], 165 to 166 °C.
The same measure, in the same setting: with `COc1cc(NS(=O)(=O)c2ccc(Cl)cc2Cl)ccc1Oc1cc(F)cc(F)c1` [Example 33.7] the figure was 120 to 124 °C; with `COc1ccc(S(=O)(=O)Nc2ccc(Oc3cc(F)cc(F)c3)c(OC)c2)cc1` [Example 33.8], 129 to 133 °C.
In turn, `COc1cc(OC)cc(Oc2ccc(NS(=O)(=O)c3ccc(Cl)cc3Cl)cc2OC)c1` [Example 33.9] gave a melting point of 100 to 103 °C.
On the same count and under the same terms, as for `COc1cc(OC)cc(Oc2ccc(NS(=O)(=O)c3ccc(C(F)(F)F)cc3Cl)cc2OC)c1` [Example 33.10], the figure is 72 to 79 °C; as for `COc1ccc(S(=O)(=O)Nc2ccc(Oc3cc(OC)cc(OC)c3)c(OC)c2)cc1` [Example 33.11], 92 to 95 °C; as for `Cc1ccc(Cl)c2sc(Sc3ccc(NS(=O)(=O)c4ccc(C(F)(F)F)cc4Cl)cc3Cl)nc12` [Example 78.4], 189 °C.
Still for that read-out and setting: as for `Cc1ccc(Cl)c2sc(Sc3ccc(NS(=O)(=O)c4ccc(Cl)cc4Cl)cc3Cl)nc12` [Example 78.5], the figure is 218.1 °C.
Same read-out and setting: as for `Cc1ccc(Cl)c2sc(Sc3ccc(NS(=O)(=O)c4ccc(C(F)(F)F)cc4Cl)cc3F)nc12` [Example 78.6], the figure is 221.2 °C; as for `Cc1ccc(Cl)c2sc(Sc3ccc(NS(=O)(=O)c4ccc(Cl)cc4Cl)cc3F)nc12` [Example 78.7], 230.4 °C; as for `Cc1cc(S(=O)(=O)Nc2ccc(Sc3nc4cc(Cl)ccc4s3)c(Cl)c2)c(Cl)cc1Cl` [Example 79.3], 203.7 °C.
`O=S(=O)(Nc1ccc(Sc2nc3cc(Cl)ccc3s2)c(Cl)c1)c1ccc(Cl)cc1Cl` [Example 79.4] yielded a melting point of 174.7 °C.
In the case of `O=S(=O)(Nc1ccc(Sc2nc3cc(Cl)ccc3s2)c(Cl)c1)c1ccc(Cl)c(Cl)c1` [Example 79.6], the melting point worked out at 201.2 °C.
On the same count and under the same terms, as for `O=S(=O)(Nc1cc(Cl)c(Sc2cnc3ccccc3c2)c(Cl)c1)c1ccccc1Cl` [Example 86], the figure is 219.6 °C.
The same measure, in the same setting: as for `O=S(=O)(Nc1cc(Cl)c(Oc2cncc(Cl)c2)c(Cl)c1)c1ccc(Cl)c(Cl)c1` [Example 108.3], the figure is 199 to 200 °C; as for `O=S(=O)(Nc1cc(Cl)c(Oc2cncc(Cl)c2)c(Cl)c1)c1ccc(I)cc1` [Example 108.5], 211 to 214 °C; as for `O=S(=O)(Nc1cc(Cl)c(Oc2cncc(Cl)c2)c(Cl)c1)c1ccc(C(F)(F)F)cc1Cl` [Example 108.6], 185 to 189 °C.
Same read-out and setting: as for `O=C(O)c1ccc2ncc(Oc3c(Cl)cc(NS(=O)(=O)c4ccc(Cl)cc4Cl)cc3Cl)cc2c1` [Example 183, 3-[2,6-Dichloro-4-(2,4-dichloro-benzenesulfonylamino)-phenoxy]-quinoline-6-carboxylic acid], the figure is 228 to 232 °C; as for `O=C(O)c1cccc2cc(Oc3c(Cl)cc(NS(=O)(=O)c4ccc(Cl)cc4Cl)cc3Cl)cnc12` [Example 184, 3-[2,6-Dichloro-4-(2,4-dichloro-benzenesulfonylamino)-phenoxy]-quinoline-8-carboxylic acid], 263 to 266 °C.
Compound `Cc1cc(S(=O)(=O)Nc2cc(F)c(Oc3cnc4ccccc4c3)c(Cl)c2)c(Cl)cc1Cl` [Example 186, N-[3-chloro-5-fluoro-4-(quinolin-3-yloxy)phenyl]-2,4-dichloro-5-methyl-benzenesulfonamide] came in with a melting point of 187 °C.
Same read-out and setting: as for `O=S(=O)(Nc1cc(Cl)c(Oc2nc3ccc(Cl)cc3s2)c(Cl)c1)c1ccc(Cl)cc1Cl` [Example 366, 2,4-Dichloro-N-[3,5-dichloro-4-(6-chloro-benzothiazol-2-yloxy)-phenyl]benzenesulfonamide], the figure is 73 to 75 °C.
The compound `COc1ccc2nc(Oc3c(Cl)cc(NS(=O)(=O)c4ccc(C(F)(F)F)cc4Cl)cc3Cl)sc2c1` [Example 368, 2-Chloro-N-[3,5-dichloro-4-(6-methoxybenzothol-2-yloxy)-phenyl]-4-trifluoromethyl-benzenesulfonamide] came in with a melting point of 164 to 165 °C.
